Drawing on ChEMBL document CHEMBL1147548, “Didehydrofarnesyl diphosphate: an intrinsically fluorescent inhibitor of protein farnesyltransferase” (Bioorg Med Chem Lett, 2004), this text covers Ki and Km for two molecules.

For orientation: Ki means a measure of affinity in units of concentration, obtained from inhibition or displacement. A high value points to a looser hold on the target. A word on the Km: it is the substrate concentration at which the rate is half of its maximum.

For data set [1], the target named is T1, Farnesyltransferase (Saccharomyces cerevisiae S288c, UniProt P22007+P29703).
T1 sequence (P29703 whole entry): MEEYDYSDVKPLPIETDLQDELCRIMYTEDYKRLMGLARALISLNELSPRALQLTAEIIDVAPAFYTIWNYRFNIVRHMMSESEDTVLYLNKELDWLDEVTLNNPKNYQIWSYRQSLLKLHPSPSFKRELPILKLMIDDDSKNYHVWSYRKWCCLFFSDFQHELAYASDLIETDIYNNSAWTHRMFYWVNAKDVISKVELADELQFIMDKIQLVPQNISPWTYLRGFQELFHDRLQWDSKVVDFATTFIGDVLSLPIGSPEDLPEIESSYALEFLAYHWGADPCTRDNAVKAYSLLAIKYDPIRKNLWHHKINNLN
T1 sequence (P22007 whole entry): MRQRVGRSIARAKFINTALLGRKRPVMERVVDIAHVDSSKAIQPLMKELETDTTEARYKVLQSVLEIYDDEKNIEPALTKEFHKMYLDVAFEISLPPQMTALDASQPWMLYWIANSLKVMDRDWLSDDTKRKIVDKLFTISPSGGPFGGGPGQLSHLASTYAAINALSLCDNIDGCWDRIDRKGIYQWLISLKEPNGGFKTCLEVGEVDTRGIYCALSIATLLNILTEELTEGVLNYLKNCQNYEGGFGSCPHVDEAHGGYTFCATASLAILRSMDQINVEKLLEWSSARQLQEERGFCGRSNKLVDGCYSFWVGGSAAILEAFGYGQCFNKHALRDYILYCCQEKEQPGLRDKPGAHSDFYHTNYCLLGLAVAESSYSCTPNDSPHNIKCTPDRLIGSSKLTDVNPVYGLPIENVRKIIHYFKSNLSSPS
Kind of data set: (§1) Dissociation constant against yeast farnesyltransferase. It is filed as protein-complex assay.

Substrate in data set [2]: CC(C)=CCC/C(C)=C/CC/C(C)=C/COP(=O)(O)OP(=O)(O)O
The description is as §1. The class given is protein-complex assay. The settings on record: Saccharomyces cerevisiae.

As to `CC(C)=C/C=C/C(C)=C/C=C/C(C)=C/COP(=O)(O)OP(=O)(O)O`, the affinity in data set [1] corresponds to a Ki of 8.8 µM.

B1: Farnesyltransferase (Saccharomyces cerevisiae S288c), P29703+P22007 (protein)
chain 1: MEEYDYSDVKPLPIETDLQDELCRIMYTEDYKRLMGLARALISLNELSPRALQLTAEIIDVAPAFYTIWNYRFNIVRHMMSESEDTVLYLNKELDWLDEVTLNNPKNYQIWSYRQSLLKLHPSPSFKRELPILKLMIDDDSKNYHVWSYRKWCCLFFSDFQHELAYASDLIETDIYNNSAWTHRMFYWVNAKDVISKVELADELQFIMDKIQLVPQNISPWTYLRGFQELFHDRLQWDSKVVDFATTFIGDVLSLPIGSPEDLPEIESSYALEFLAYHWGADPCTRDNAVKAYSLLAIKYDPIRKNLWHHKINNLN
chain 2: MRQRVGRSIARAKFINTALLGRKRPVMERVVDIAHVDSSKAIQPLMKELETDTTEARYKVLQSVLEIYDDEKNIEPALTKEFHKMYLDVAFEISLPPQMTALDASQPWMLYWIANSLKVMDRDWLSDDTKRKIVDKLFTISPSGGPFGGGPGQLSHLASTYAAINALSLCDNIDGCWDRIDRKGIYQWLISLKEPNGGFKTCLEVGEVDTRGIYCALSIATLLNILTEELTEGVLNYLKNCQNYEGGFGSCPHVDEAHGGYTFCATASLAILRSMDQINVEKLLEWSSARQLQEERGFCGRSNKLVDGCYSFWVGGSAAILEAFGYGQCFNKHALRDYILYCCQEKEQPGLRDKPGAHSDFYHTNYCLLGLAVAESSYSCTPNDSPHNIKCTPDRLIGSSKLTDVNPVYGLPIENVRKIIHYFKSNLSSPS
Regarding B1, the Km in data set [2] worked out at 27 µM.
